Columns and labels:
[1] = tested on: IL-1β p17 in the cerebral spinal fluid; assay: Test on IL-1β production in rat central nerve (LPS/BzATP intracisternal, CSF Western blot); details: oral
Protocol: After 2 hours, the test compound was orally administered. After 1 hour, 50 μg/5 μL of BzATP (2′(3′)-O-(4-Benzoylbenzoyl)adenosine 5′-triphosphate triethylammonium salt, SIGMA, B6396) was intracisternally administered, and after 30 minutes, a cerebral spinal fluid was collected. The amount of IL-1β p17 in the cerebral spinal fluid was determined by a Western blotting method using an anti-IL-1β antibody (Millipore, AB1832P), and the inhibition ratio to the solvent administration group was calculated.

[2] = tested on: IL-1β Production of THP-1; assay: Test on IL-1β production of THP-1 (LPS and ATP stimulation, ELISA); format: cell-based; details: Homo sapiens; PMA-differentiated THP-1 cells, LPS 50 ng/mL and ATP 5 mM, 2 hours
Protocol: 50 ng/mL of PMA (phorbol myristate acetate, SIGMA, P1585) was added to THP-1 cells, and the cells were cultured at 37° C. for 2 days. […] LPS (Lipopolysaccharide, SIMGA, L2880) and ATP (Adenosine triphosphate, SIGMA, A2383) were added to final concentrations of 50 ng/mL and 5 mM, respectively, and the cells were cultured at 37° C. for 2 hours. The supernatant was collected, and the concentration of IL-1β was measured by an ELISA method (DuoSet ELISA human IL-1β, R&D Systems, DY201). […] The IC50 value was calculated by sigmoid […] model non-linear regression analysis.

IC50 [2] [nM] | SMILES | further results
210 | Cc1c(NC[C@@H](C)O)nnc(-c2ccc(C(F)(F)F)cc2C(F)(F)F)c1C [Example 4, (2R)-1-({6-[2,4-bis(trifluoromethyl)phenyl]-4,5-dimethylpyridazin-3-yl}amino)propan-2-ol] | IL-1β p17 inhibition ratio to the solvent administration group ([1]; Dose 3 mg/kg): 68%; IL-1β p17 inhibition ratio to the solvent administration group ([1]; Dose 10 mg/kg): 93%; IL-1β p17 inhibition ratio to the solvent administration group ([1]; Dose 30 mg/kg): 100%
14 | Cc1c(NC[C@@H](C)O)nnc(-c2ccc(C(F)(F)F)cc2O)c1C [Example 9, 2-(6-{[(R2R)-2-hydroxypropyl]amino}-4,5-dimethylpyridazin-3-yl)-5-(trifluoromethyl)phenol] | IL-1β p17 inhibition ratio to the solvent administration group ([1]; Dose 0.3 mg/kg): 37%; IL-1β p17 inhibition ratio to the solvent administration group ([1]; Dose 1 mg/kg): 70%; IL-1β p17 inhibition ratio to the solvent administration group ([1]; Dose 3 mg/kg): 89%
36 | Cc1c(NCCCO)nnc(-c2ccc(C(F)(F)F)cc2O)c1C [Example 70, 2-{6-[(3-hydroxypropyl)amino]-4,5-dimethylpyridazine-3-yl}-5-(trifluoromethyl)phenol] | –
38 | Cc1c(NCC(C)CO)nnc(-c2ccc(C(F)(F)F)cc2O)c1C (stereo not drawn) [Example 71] | –
43 | Cc1c(NC[C@H](C)O)nnc(-c2ccc(C(F)(F)F)cc2O)c1C [Example 73] | –
35 | CC(=O)NCCCCNc1nnc(-c2ccc(C(F)(F)F)cc2O)c(C)c1C [Example 74] | –
18 | Cc1c(NC[C@H](C)CO)nnc(-c2ccc(C(F)(F)F)cc2O)c1C [Example 75] | –
89 | Cc1c(NCC(C)CO)nnc(-c2ccc(Cl)cc2O)c1C (stereo not drawn) [Example 77] | –
43 | C[C@@H](O)CNc1cc(C2CC2)c(-c2ccc(Cl)cc2O)nn1 [Example 78] | –

Reference: US20230107277A1, “SUBSTITUTED PYRIDAZINE COMPOUND” (Astellas Pharma Inc., priority 2020, published 2023)
